Experimental data published in patent US11130726B2, “Therapeutic compounds and methods of use thereof” (GENENTECH, INC., priority 2015, dated 2021).

Molecular target: T1, hNav1.7 (Homo sapiens, UniProt Q15858)
T1 construct: expressed in transfected cells
Test: Tritiated compound competitive binding to membranes from cells heterologously expressing hNav1.7 and the β1 subunit (LBA)
Conditions: read-out: NaV1.7 (LBA)
Experimental: Example 19 Tritiated Compound Binding to Membranes Isolated from Cells that Heterologously Express hNav1.7 and the β1 Subunit
Preparation of membranes containing recombinantly expressed sodium channels: Frozen recombinant cell pellets were thawed on ice and diluted to 4 times the cell pellet weight with ice cold 50 mM Tris HCl, pH 7.4 buffer. The cell suspensions were homogenized on ice using a motorized glass dounce homogeniser. Homogenates were further diluted 8.4 times with ice cold 50 mM Tris HC1, pH 7.4 buffer and then centrifuged at 200× g at 4° C. for 15 min. The supernatants were collected and centrifuged at 10000× g at 4° C. for 50 min. The pellets were then re-suspended in 100 mM NaCl, 20 mM Tris HCl, pH 7.4 buffer containing 1% v/v protease inhibitors (Calbiochem) and re-homogenized on ice. The homogenized membranes were then processed through a syringe equipped with a 26 gauge needle. Protein concentrations were determined by Bradford Assay and the membranes were stored at −80° C.
Radioligand Binding Studies: Saturation experiments. A competitive NaV1.7 inhibitor having a methyl group was tritiated. Three tritiums were incorporated in place of methyl hydrogens to generate[^3H]compound. Binding of this radioligand was performed in 5 mL borosilicate glass test tubes at room temperature. Binding was initiated by adding membranes to increasing concentrations of [^3H]compound in 100 mM NaCl, 20 mM Tris HCl, pH 7.4 buffer containing 0.01% w/v bovine serum albumin (BSA) for 18 h. Non-specific binding was determined in the presence of 1 μM unlabeled compound. After 18 h, the reactants were filtered through GF/C glass fiber filters presoaked in 0.5% w/v polyethylene imine. Filters were washed with 15 mL ice cold 100 mM NaCl, 20 mM Tris HCl, pH7.4 buffer containing 0.25% BSA to separate bound from free ligand. [^3H]compound bound to filters was quantified by liquid scintillation counting.
Competitive binding experiments: Binding reactions were performed in 96-well polypropylene plates at room temperature for 18 h. In 360 μL, membranes were incubated with 100 pM [^3H]compound and increasing concentrations of Test Compound. Non-specific binding was defined in the presence of 1 μM unlabeled compound. Reactions were transferred and filtered through 96-well glass fiber/C filter plates presoaked with 0.5% polyethylene imine. The filtered reactions were washed 5 times with 200 μL ice cold buffer containing 0.25% BSA. Bound radioactivity was determined by liquid scintillation counting.
Data Analysis: For saturation experiments, non-specific binding was subtracted from total binding to provide specific binding and these values were recalculated in terms of pmol ligand bound per mg protein. Saturation curves were constructed and dissociation constants were calculated using the single site ligand binding model: Beq=(Bmax*X)/(X+Kd), where Beq is the amount of ligand bound at equilibrium, Bmax is the maximum receptor density, Kd is the dissociation constant for the ligand, and X is the free ligand concentration. For competition studies percent inhibition was determined and IC50 values were calculated using a 4 parameter logistic model (% inhibition=(A+((B−A)/(1+((x/C)^D)))) using XLfit, where A and B are the maximal and minimum inhibition respectively, C is the IC50 concentration and D is the (Hill) slope.

T1 sequence (Q15858 whole entry): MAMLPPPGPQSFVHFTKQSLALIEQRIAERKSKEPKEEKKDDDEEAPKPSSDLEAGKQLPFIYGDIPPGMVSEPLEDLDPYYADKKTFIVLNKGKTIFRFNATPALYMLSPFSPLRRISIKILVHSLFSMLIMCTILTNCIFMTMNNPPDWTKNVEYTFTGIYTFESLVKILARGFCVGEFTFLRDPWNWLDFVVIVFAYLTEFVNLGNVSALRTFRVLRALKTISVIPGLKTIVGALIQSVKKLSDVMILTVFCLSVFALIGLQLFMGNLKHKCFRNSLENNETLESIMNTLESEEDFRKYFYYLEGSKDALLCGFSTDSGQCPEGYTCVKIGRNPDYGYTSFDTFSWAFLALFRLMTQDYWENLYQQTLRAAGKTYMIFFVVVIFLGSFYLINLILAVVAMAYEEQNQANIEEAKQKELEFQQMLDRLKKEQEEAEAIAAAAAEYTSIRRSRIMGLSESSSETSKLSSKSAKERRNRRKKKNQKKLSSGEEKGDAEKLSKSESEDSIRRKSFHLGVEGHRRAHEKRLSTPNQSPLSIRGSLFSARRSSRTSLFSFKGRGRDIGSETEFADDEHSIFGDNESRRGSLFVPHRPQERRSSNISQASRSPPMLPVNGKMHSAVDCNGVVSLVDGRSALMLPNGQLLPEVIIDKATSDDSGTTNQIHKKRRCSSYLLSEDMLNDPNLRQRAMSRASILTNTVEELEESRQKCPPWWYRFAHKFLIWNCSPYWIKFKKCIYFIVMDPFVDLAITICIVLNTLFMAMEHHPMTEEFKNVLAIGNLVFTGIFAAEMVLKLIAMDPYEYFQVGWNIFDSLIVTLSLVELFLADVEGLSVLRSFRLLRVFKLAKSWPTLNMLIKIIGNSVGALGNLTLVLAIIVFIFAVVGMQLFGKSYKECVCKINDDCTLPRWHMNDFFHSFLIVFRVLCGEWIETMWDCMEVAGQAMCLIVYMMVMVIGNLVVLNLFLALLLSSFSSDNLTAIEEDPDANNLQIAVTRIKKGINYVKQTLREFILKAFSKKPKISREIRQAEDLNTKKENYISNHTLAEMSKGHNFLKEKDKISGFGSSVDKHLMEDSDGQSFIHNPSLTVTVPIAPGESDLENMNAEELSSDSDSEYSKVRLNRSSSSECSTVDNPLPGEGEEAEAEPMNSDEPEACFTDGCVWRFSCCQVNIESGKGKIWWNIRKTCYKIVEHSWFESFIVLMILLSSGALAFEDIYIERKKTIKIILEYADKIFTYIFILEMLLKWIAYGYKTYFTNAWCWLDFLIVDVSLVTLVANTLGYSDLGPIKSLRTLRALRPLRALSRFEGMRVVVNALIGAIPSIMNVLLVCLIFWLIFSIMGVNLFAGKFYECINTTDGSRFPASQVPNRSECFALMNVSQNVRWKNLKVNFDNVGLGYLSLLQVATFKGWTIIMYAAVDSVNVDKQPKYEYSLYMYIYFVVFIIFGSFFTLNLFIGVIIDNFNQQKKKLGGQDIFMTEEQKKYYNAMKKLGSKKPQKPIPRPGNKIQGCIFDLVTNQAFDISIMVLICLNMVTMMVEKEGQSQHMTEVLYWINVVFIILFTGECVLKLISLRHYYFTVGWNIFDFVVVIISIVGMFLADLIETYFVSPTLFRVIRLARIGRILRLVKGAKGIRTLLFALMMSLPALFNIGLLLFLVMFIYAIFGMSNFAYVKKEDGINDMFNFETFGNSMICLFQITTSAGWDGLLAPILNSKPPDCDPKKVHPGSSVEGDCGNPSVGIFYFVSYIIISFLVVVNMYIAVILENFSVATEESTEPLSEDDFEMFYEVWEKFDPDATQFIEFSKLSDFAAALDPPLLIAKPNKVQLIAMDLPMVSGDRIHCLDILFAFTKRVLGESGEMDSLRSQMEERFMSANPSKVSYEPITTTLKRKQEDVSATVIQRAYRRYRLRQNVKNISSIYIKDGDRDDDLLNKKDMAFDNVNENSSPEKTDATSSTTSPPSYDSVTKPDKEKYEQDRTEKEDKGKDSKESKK
T1 sequence (Q07699 19-218 partner): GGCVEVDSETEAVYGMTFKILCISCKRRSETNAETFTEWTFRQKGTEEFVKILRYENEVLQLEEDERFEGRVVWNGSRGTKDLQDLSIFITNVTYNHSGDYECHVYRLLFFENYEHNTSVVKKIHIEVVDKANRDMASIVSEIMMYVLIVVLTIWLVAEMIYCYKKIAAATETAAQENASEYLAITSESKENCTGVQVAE

**Q.** With O=C(O)[C@@H]1CC[C@H]1C(=O)c1cc(C2CC2)c(OCC23CC4CC(CC(C4)C2)C3)cc1F (racemic) [Example 7] as the compound, how does the IC50 read?
**A.** 760 nM

**Q.** How did the IC50 turn out when O=C(O)[C@@H]1CCC[C@H]1S(=O)(=O)c1cc(Cl)c(OCC23CC4CC(CC(C4)C2)C3)cc1F (racemic) [Example 15] was run?
**A.** 454 nM

**Q.** Which IC50 does the source give for O=C(O)[C@@H]1CCC[C@H]1C(=O)c1cc(C2CC2)c(OCc2ccccc2)cc1F (relative stereo) [Example 8, trans-2-(4-(benzyloxy)-5-cyclopropyl-2-fluorobenzoyl)-cyclopentane-1-carboxylic acid] here?
**A.** 860 nM

**Q.** For O=C(O)[C@@H]1CCC[C@H]1C(=O)c1cc(C2CC2)c(COc2cc(Cl)cc(Cl)c2)cc1F (relative stereo) [Example 10, (1,2-trans)-2-(5-cyclopropyl-4-((3,5-dichlorophenoxy)methyl)-2-fluorobenzoyl)cyclopentane-1-carboxylic acid], which IC50 is on record?
**A.** 21 nM

**Q.** CN(c1cc(Cl)c(OCC23C[C@H]4C[C@@H](C2)C[C@@H](C3)C4)cc1F)[C@@H]1CCC[C@H]1C(=O)O (relative stereo) [Example 18, 2-(4-(1-adamantylmethoxy)-5-chloro-2-fluoro-N-methylanilino)-cyclopentanecarboxylic acid] was tested. Which IC50 did it give?
**A.** > 10000 nM

**Q.** How did the IC50 turn out when O=C(O)[C@@H]1CCC[C@H]1[S+]([O-])c1cc(Cl)c(OCC23CC4CC(CC(C4)C2)C3)cc1F (stereo in doubt) [Example 16] was run?
**A.** 1290 nM

**Q.** Which IC50 does the source give for O=C(O)[C@@H]1CCC[C@H]1C(=O)c1cc(C2CC2)c(OCC23CC4CC(CC(C4)C2)C3)cc1F [Example 1] here?
**A.** 9 nM

**Q.** With O=C(O)[C@H]1CCC[C@@H]1C(=O)c1cc(C2CC2)c(OCC23CC4CC(CC(C4)C2)C3)cc1F [Example 2] as the compound, how does the IC50 read?
**A.** 510 nM

**Q.** Which IC50 does the source give for O=C(c1cc(Cl)c(OCC23CC4CC(CC(C4)C2)C3)cc1F)[C@H]1CCC[C@H]1C(=O)O [Example 3] here?
**A.** 4200 nM

**Q.** How did the IC50 turn out when O=C(O)[C@@H]1CCC[C@H]1C(=O)c1cc(Cl)c(OCC23CC4CC(CC(C4)C2)C3)cc1F [Example 4] was run?
**A.** 440 nM

**Q.** For O=C(O)[C@@H]1CCC[C@H]1Cc1cc(C2CC2)c(OCC23CC4CC(CC(C4)C2)C3)cc1F [Example 5], which IC50 is on record?
**A.** 3100 nM

**Q.** O=C(O)[C@@H]1CCCC[C@H]1C(=O)c1cc(C2CC2)c(OCC23CC4CC(CC(C4)C2)C3)cc1F [Example 6] was tested. Which IC50 did it give?
**A.** 55 nM

**Q.** Which IC50 does the source give for C[C@@H](c1cc(Cl)cc(Cl)c1)N1CCC(COc2cc(F)c(C(=O)[C@@H]3CCC[C@H]3C(=O)O)cc2C2CC2)CC1 [Example 9, (1,2-trans)-2-(5-cyclopropyl-4-((1-((S)-1-(3,5-dichlorophenyl)ethyl)piperidin-4-yl)methoxy)-2-fluorobenzoyl)cyclopentane-1-carboxylic acid] here?
**A.** 51 nM

**Q.** How did the IC50 turn out when C[C@H]1CC[C@@H](C(=O)c2cc(C3CC3)c(OCC34CC5CC(CC(C5)C3)C4)cc2F)[C@@H]1C(=O)O [Example 11] was run?
**A.** 700 nM

**Q.** How did the IC50 turn out when C[C@@H]1CC[C@H](C(=O)c2cc(C3CC3)c(OCC34CC5CC(CC(C5)C3)C4)cc2F)[C@H]1C(=O)O [Example 12] was run?
**A.** 3 nM

**Q.** How did the IC50 turn out when O=C(O)[C@@H]1CCC[C@H]1C(=O)c1cc(C2CC2)c(OCC2CCN(Cc3cc(C(F)(F)F)ccc3Cl)CC2)cc1F [Example 13, (1R,2R)-2-(4-((1-(2-chloro-5-(trifluoromethyl)benzyl)piperidin-4-yl)methoxy)-5-cyclopropyl-2-fluorobenzoyl)cyclopentane-1-carboxylic acid] was run?
**A.** 21 nM

**Q.** Which IC50 does the source give for O=C(O)C1CCCC1Sc1cc(Cl)c(OCC23CC4CC(CC(C4)C2)C3)cc1F (stereo not drawn) [Example 14] here?
**A.** 2630 nM

**Q.** O=C(O)C1CCCC1Nc1cc(Cl)c(OCC23CC4CC(CC(C4)C2)C3)cc1F (stereo not drawn) [Example 17, 2-((4-adamant-1-ylmethoxy)-5-chloro-2-fluoro-anilino)cyclopentanecarboxylic acid] was tested. Which IC50 did it give?
**A.** 3020 nM
